In US7892784B2, “Lactam ring-opening enzyme and use thereof” (priority 2006, dated 2011):
≈ marks a conversion by molar mass, not a printed value. Read-outs that look alike come from different tables or passages of the source.

Assays:
B. subtilis NBRC13169 = assay: MIC test of STs and ST-acids; assay type: cell-based, Bacillus subtilis; settings: Heart Infusion Broth; 1 day at 37° C.
E. coli XL1-Blue MRF' = assay: MIC of ST-F and ST-D in E. coli XL1-Blue MRF' overexpressing sttH or nat gene; assay type: cell-based, Escherichia coli; settings: LB medium, 1 day at 37° C.
Method: Restriction enzyme sites (GGATCC or AAGCTT, underlined) and a stop codon (TCA, underlined) were inserted into these primers. An expression vector (pQE30-nat) having incorporated therein an amplified fragment including these primers was constructed using pQE30. The MIC of ST-F and ST-D in an E. coli XL1-Blue MRF′ strain carrying pQE30-nat and pQE30-SHF6R were determined on LB agar flat plates containing ampicillin (100 μg/mL), 0.1 mM IPTG and STs (0 to 4 mM). S. cerevisiae CKY8 strain overexpressing the nat gene and the sttH gene was also prepared as follows. The following two sets of primers having restriction enzyme sites (AAGCTT or CTGCAG, underlined) and stop codons (TCA, underlined) added thereto were designed and used in PCR:
(§1) Although it was previously reported that the biological activity of chemically synthesized ST-F-acid is negligible in microorganisms and plants, that of ST-D-acid remains unclear. Therefore, we determined the respective MICs of ST-F and ST-D in E. coli and Saccharomyces cerevisiae overexpressing the sttH gene or nat gene (Table 3). […] To confirm this, the selective toxicity of ST-acids and STs against various microorganisms including gram-positive and -negative bacteria, clinically isolated pathogenic bacteria and yeasts was investigated. […] A “c/a” in parentheses in the table represents the ratio of the minimum inhibitory concentrations of ST-F-acid and ST-F, while “d/b” represents the ratio of the minimum inhibitory concentrations of ST-D-acid and ST-D.

S. aureus FIR1169 = assay type: cell-based, Staphylococcus aureus
S. pombe L972 = assay: MIC test of STs and ST-acids; assay type: cell-based, Schizosaccharomyces pombe; settings: YPD medium; 2 days at 30° C.
S. aureus AB = assay type: cell-based, Staphylococcus aureus
S. cerevisiae CKY8 = assay: MIC of ST-F and ST-D in S. cerevisiae CKY8 overexpressing sttH or nat gene; assay type: cell-based, Saccharomyces cerevisiae; settings: SC medium, 2 days at 30° C.
Method: After sequence confirmation, the amplified fragments were inserted into the same sites in pAD4 to prepare pAD4-nat and pAD4-sttH, in which these genes were expressed under the control of the constitutive promoter of yeast alcohol dehydrogenase. S. cerevisiae CKY8 strain carrying pAD4-nat and pAD4-sttH was grown in SC-Leu medium containing ST (ST-F or ST-D, 0 to 4 mM), and the MICs of ST-F and ST-D were determined.
as §1

E. coli W3110 = assay: MIC test of STs and ST-acids; assay type: cell-based, Escherichia coli; settings: Heart Infusion Broth; 1 day at 37° C.
rSttH [1] = tested on: T1, rSttH; assay: rSttH reaction rate test (kinetic analysis, HPLC, Lineweaver-Burk); assay type: biochemical, Streptomyces albulus NBRC14147; settings: substrate of rSttH; 30° C., 100 mM NaPB (pH 6.5); average ± s.d. of three tests
T1 construct: purified rSttH from E. coli M15 (pREP4) carrying pQE30-SHF6R; 6xHis (N); made in house; host or cells: E. coli M15 (pREP4) carrying pQE30-SHF6R
Method: (§2) In accordance with the manufacturer's (Qiagen) protocols, a reaction mixture (500 μL) was prepared using 100 mM sodium phosphate buffer (pH 6.5), 1 mg/mL ST-F or ST-D, and 100 μg/mL of purified rSttH from E. coli M15 (pREP4) carrying pQE30-SHF6R. The reaction mixture was reacted for 1 hour at 30° C. with or without rSttH, and then extracted with chloroform to remove the proteins. The water layer was analyzed by reverse-phase HPLC using an ion-pair reagent. The analytical conditions were: column, C18 reverse-phase column (COSMOSIL 5C18-AR—II, 250×4.6 mm, Nacalai Tesque, Kyoto, Japan); column temperature, 30° C.; detection, 210 nm; and flow rate, 1 mL/minute. Two different mobile phases were used, one of 0.1% heptafluorobutyric acid+18% acetonitrile (ST-F reaction) and one of 0.1% heptafluorobutyric acid+23% acetonitrile (ST-D reaction). The kinetic assays were performed under conditions similar to those described previously except that the enzyme concentrations (2 μg/mL) and reaction times (5 minutes) were reduced to make them compatible with measurement of steady-state kinetic parameters. All tests were carried out under linear conditions. The reactions were terminated by addition of 15 μl 2N HCl, and then analyzed by HPLC. The kinetic constants were estimated using a Lineweaver-Burk plot. The native molecular weight of the rSttH was estimated by gel filtration using a COSMOSIL 5Diol-300 (7.8 mm×600 mm) column (Nacalai Tesque) which had been equilibrated with 20 mM sodium phosphate buffer (pH 7.0) containing 100 mM sodium sulfate.
(§3) The optimal pH was measured in several buffers (100 mM) with differing pH values: sodium phosphate (NaPB), pH 4.5 to 7; Tris-HCl, pH 7 to 10. Activity peaked at a pH of 6.5 and declined rapidly with decreasing pH (around 4). The effect of temperature on enzymatic activity was also investigated within the range of 25° C. to 75° C. using 100 mM NaPB buffer (pH 6.5). Although enzymatic activity was greatest at 45° C., approximately 90% of maximum activity was also detected at 65° C.

rSttH [2] = biological target: T2, rSttH (Streptomyces noursei, UniProt Q1MW86); assay: as above; assay type: biochemical, Streptomyces albulus NBRC14147; settings: for Vmax: substrate of rSttH, 30° C., 100 mM NaPB (pH 6.5), U = ST-acid production per minute (μmol)
T2 construct: purified rSttH from E. coli M15 (pREP4) carrying pQE30-SHF6R; 6xHis (N); made in house; host or cells: E. coli M15 (pREP4) carrying pQE30-SHF6R
Method: as §2, §3

S. cerevisiae S288C = assay: MIC test of STs and ST-acids; assay type: cell-based, Saccharomyces cerevisiae; settings: YPD medium; 2 days at 30° C.
[3] = tested on: gram-positive and -negative bacteria, clinically isolated pathogenic bacteria and yeasts; assay type: cell-based
[4] = tested on: bacteria, fungi and plants; settings: chemically synthesized from ST-F; reports of Inamori and Taniyama; cited from earlier work
[5] = Enzymatic properties of rSttH (effect of pH and temperature); assay type: biochemical
Method: as §3

[6] = Heart Infusion Broth, 1 day at 37° C.

Row | Molecule | Minimum inhibitory concentration (MIC) (B. subtilis NBRC13169) | Minimum inhibitory concentration (MIC) (E. coli XL1-Blue MRF'; XL1-Blue MRF' + pQE30-SHF6R) | Minimum inhibitory concentration (MIC) (E. coli XL1-Blue MRF'; XL1-Blue MRF' + pQE30-nat) | Minimum inhibitory concentration (MIC) (E. coli XL1-Blue MRF'; XL1-Blue MRF' + pQE30) | Minimum inhibitory concentration (MIC) (S. aureus FIR1169; [6]) | Minimum inhibitory concentration (MIC) (S. pombe L972) | Minimum inhibitory concentration (MIC) (S. aureus AB; [6]) | Minimum inhibitory concentration (MIC) (S. cerevisiae CKY8; CKY8 + pAD4-nat) | Minimum inhibitory concentration (MIC) (S. cerevisiae CKY8; CKY8 + pAD4-sttH) | Minimum inhibitory concentration (MIC) (S. cerevisiae CKY8; CKY8 + pAD4) | Minimum inhibitory concentration (MIC) (E. coli W3110) | Km (rSttH [1]) | Vmax (rSttH [2]) | Minimum inhibitory concentration (MIC) (S. cerevisiae S288C) | ratio of MICs of ST-acid and parent ST (c/a or d/b) (B. subtilis NBRC13169) | Minimum inhibitory concentration (MIC) (S. aureus FIR1169) | ratio of MICs of ST-acid and parent ST (c/a or d/b) (S. pombe L972) | Minimum inhibitory concentration (MIC) (S. aureus AB) | ratio of MICs of ST-acid and parent ST (c/a or d/b) (E. coli W3110) | ratio of MICs of ST-acid and parent ST (c/a or d/b) (S. cerevisiae S288C) | other results
1 | NCCC[C@H](N)CC(=O)NCCC[C@H](N)CC(=O)NCCC[C@H](N)CC(=O)N[C@@H]1[C@H](O)[C@@H](OC(N)=O)[C@@H](CO)O[C@H]1NC1=N[C@@H]2C(=O)NC[C@@H](O)[C@H]2N1 [ST-D, streptothricin D] | 4 µM (≈ 3.04 µg/mL) | <30 µM | 2000 µM | <30 µM | 0.004 mM (≈ 3.04 µg/mL) | 8 µM (≈ 6.07 µg/mL) | 0.004 mM (≈ 3.04 µg/mL) | >4000 µM | >4000 µM | <30 µM | 8 µM (≈ 6.07 µg/mL) | 5740 ± 990 µM | 68.95 ± 13.9 U/mg | 4 µM (≈ 3.04 µg/mL) | – | – | – | – | – | – | –
2 | NCCC[C@H](N)CC(=O)N[C@@H]1[C@H](O)[C@@H](OC(N)=O)[C@@H](CO)O[C@H]1NC1=N[C@@H]2C(=O)NC[C@@H](O)[C@H]2N1 [ST-F, streptothricin F] | 16 µM (≈ 8.04 µg/mL) | 250 µM | 4000 µM | <30 µM | 0.016 mM (≈ 8.04 µg/mL) | 125 µM (≈ 62.8 µg/mL) | 0.016 mM (≈ 8.04 µg/mL) | >4000 µM | >4000 µM | 500 µM | 30 µM (≈ 15.1 µg/mL) | 960 ± 190 µM | 42.26 ± 2.8 U/mg | 62 µM (≈ 31.2 µg/mL) | – | – | – | – | – | – | Vmax/Km of the reaction with ST-F relative to the reaction with ST-D (rSttH [2]; rSttH): 4 fold
3 | NCCCC(N)CC(=O)NC1C(/N=C2/NC(C(=O)O)C(C(O)CN)N2)OC(CO)C(OC(N)=O)C1O (centres unmarked) [ST-F-acid] | 4000 µM (≈ 2080 µg/mL) | – | – | – | – | > 4000 µM | – | – | – | – | 4000 µM (≈ 2080 µg/mL) | – | – | > 4000 µM | 250 | 2 (126) mM | > 32 | 2 (126) mM | 133 | > 64 | antimicrobial activity [3]: lost almost all of its antimicrobial activity; antibiotic activity [4]: did not exhibit antibiotic activity
4 | lactam ring-opened streptothricin D derivative [ST-D-acid] | 125 µM | – | – | – | – | 1000 µM | – | – | – | – | 250 µM | – | – | 1000 µM | 31.3 | 0.06 (15) mM | 125 | 0.06 (15) mM | 31.3 | 250 | antimicrobial activity (S. aureus FIR1169): particularly strong antimicrobial activity; antimicrobial activity (S. aureus AB): particularly strong antimicrobial activity
5 | rSttH: recombinant lactam ring-opening enzyme from Streptomyces albulus NBRC14147, N-terminal 6× His Tag fused protein (protein, N-terminal 6xHis tag; streptomyces albulus, recombinant lactam ring-opening enzyme from Streptomyces albulus NBRC14147, N-terminal 6× His Tag fused protein) VTAMPPETAAPPETAAPARPLRPVQALLVVDVQTAFVSGAEAVPEAARVLDRTRGLLARARTAGALVVHLQNDGAPGAVDAPHTPGWELHLPVEPGPREHVVRKTEDDGFADTGLGALLDAAGVTELAVCGVLSEMCVAATARTALELGHRVVLPHDAHATYDIPAAPDISDTVPAAMSSRAAEWALGDEVEIVPRAAAVPFVAPPLAPAPEAPAAAAAPAAGTGLSPAGPPPAPAR | – | – | – | – | – | – | – | – | – | – | – | – | – | – | – | – | – | – | – | – | optimal pH (activity peak) ([5]; 100 mM buffers: NaPB pH 4.5 to 7, Tris-HCl pH 7 to 10): 6.5; enzymatic activity relative to maximum activity ([5]; at 65° C., 100 mM NaPB (pH 6.5)): approximately 90%; temperature of greatest enzymatic activity ([5]; range 25° C. to 75° C., 100 mM NaPB (pH 6.5)): 45 °C
